Measurements from PMC9487510, “A Novel Oral GyrB/ParE Dual Binding Inhibitor Effective against Multidrug-Resistant Neisseria gonorrhoeae and Other High-Threat Pathogens” (Antimicrobial Agents and Chemotherapy, 2022).

Test system: N. gonorrhoeae clinical isolates
Test: MIC, agar dilution (CLSI)
Assay type: cell-based, Neisseria gonorrhoeae

CN(C)[C@@H]1C(O)=C(C(N)=O)C(=O)[C@@]2(O)C(O)=C3C(=O)c4c(O)cccc4[C@@](C)(O)[C@H]3C[C@@H]12 [Tet, tetracycline]
0.5 µg/mL: MIC (Neisseria gonorrhoeae, strain CDC4 (GCREF2013 030)) | MIC (Neisseria gonorrhoeae, strain CDC15 (GCREF2012 011)) | MIC (Neisseria gonorrhoeae, strain CDC19 (GCREF2012 015)) | MIC (Neisseria gonorrhoeae, strain CDC26 (GCREF2012 023)) | MIC (Neisseria gonorrhoeae, strain CDC32 (GCREF2012 029)) | MIC (Neisseria gonorrhoeae, strain CDC33 (GCREF2012 030)) | MIC (Neisseria gonorrhoeae, strain CDC57 (GCREF2013 003)) | MIC (Neisseria gonorrhoeae, strain CDC62 (GCREF2013 007)) | MIC (Neisseria gonorrhoeae, strain CDC65 (GCREF2013 010)) | MIC (Neisseria gonorrhoeae, strain CDC66 (GCREF2013 011)) | MIC (Neisseria gonorrhoeae, strain CDC82 (GCREF2013 031)) | MIC (Neisseria gonorrhoeae, strain CDC83 (GCREF2013 032)) | MIC (Neisseria gonorrhoeae, strain CDC84 (GCREF2013 033)) | MIC (Neisseria gonorrhoeae, strain CDC88 (GCREF2013 037)) | MIC (Neisseria gonorrhoeae, strain CDC94 (GCREF2013 043)) | MIC (Neisseria gonorrhoeae, strain CDC96 (GCREF2013 046)) | MIC (Neisseria gonorrhoeae, strain CDC98 (GCREF2013 048)) | MIC (Neisseria gonorrhoeae, strain CDC99 (GCREF2013 012))
0.063 µg/mL: MIC (Neisseria gonorrhoeae, strain CDC63 (GCREF2013 008))
0.25 µg/mL: MIC (Neisseria gonorrhoeae, strain CDC86 (GCREF2013 035))
0.063 to 16 µg/mL: MIC range (96 clinical isolates)
16 µg/mL: MIC (Neisseria gonorrhoeae, strain CDC59 (GCREF2013 044))
1 µg/mL: MIC50 (Neisseria gonorrhoeae) | MIC90 (Neisseria gonorrhoeae) | MIC (Neisseria gonorrhoeae, strain CDC2 (GCREF2012 045)) | MIC (Neisseria gonorrhoeae, strain CDC3 (GCREF2013 013)) | MIC (Neisseria gonorrhoeae, strain CDC5 (GCREF2012 001)) | MIC (Neisseria gonorrhoeae, strain CDC6 (GCREF2012 002)) | MIC (Neisseria gonorrhoeae, strain CDC8 (GCREF2012 004)) | MIC (Neisseria gonorrhoeae, strain CDC9 (GCREF2012 005)) | MIC (Neisseria gonorrhoeae, strain CDC10 (GCREF2012 006)) | MIC (Neisseria gonorrhoeae, strain CDC11 (GCREF2012 007)) | MIC (Neisseria gonorrhoeae, strain CDC12 (GCREF2012 008)) | MIC (Neisseria gonorrhoeae, strain CDC13 (GCREF2012 009)) | MIC (Neisseria gonorrhoeae, strain CDC14 (GCREF2012 010)) | MIC (Neisseria gonorrhoeae, strain CDC16 (GCREF2012 012)) | MIC (Neisseria gonorrhoeae, strain CDC18 (GCREF2012 014)) | MIC (Neisseria gonorrhoeae, strain CDC20 (GCREF2012 017)) | MIC (Neisseria gonorrhoeae, strain CDC21 (GCREF2012 018)) | MIC (Neisseria gonorrhoeae, strain CDC22 (GCREF2012 019)) | MIC (Neisseria gonorrhoeae, strain CDC23 (GCREF2012 020)) | MIC (Neisseria gonorrhoeae, strain CDC24 (GCREF2012 021)) | MIC (Neisseria gonorrhoeae, strain CDC25 (GCREF2012 022)) | MIC (Neisseria gonorrhoeae, strain CDC27 (GCREF2012 024)) | MIC (Neisseria gonorrhoeae, strain CDC28 (GCREF2012 025)) | MIC (Neisseria gonorrhoeae, strain CDC29 (GCREF2012 026)) | MIC (Neisseria gonorrhoeae, strain CDC30 (GCREF2012 027)) | MIC (Neisseria gonorrhoeae, strain CDC34 (GCREF2012 031)) | MIC (Neisseria gonorrhoeae, strain CDC36 (GCREF2012 033)) | MIC (Neisseria gonorrhoeae, strain CDC37 (GCREF2012 034)) | MIC (Neisseria gonorrhoeae, strain CDC38 (GCREF2012 035)) | MIC (Neisseria gonorrhoeae, strain CDC39 (GCREF2012 036)) | MIC (Neisseria gonorrhoeae, strain CDC40 (GCREF2012 037)) | MIC (Neisseria gonorrhoeae, strain CDC41 (GCREF2012 038)) | MIC (Neisseria gonorrhoeae, strain CDC46 (GCREF2012 043)) | MIC (Neisseria gonorrhoeae, strain CDC47 (GCREF2012 044)) | MIC (Neisseria gonorrhoeae, strain CDC48 (GCREF2012 046)) | MIC (Neisseria gonorrhoeae, strain CDC49 (GCREF2012 047)) | MIC (Neisseria gonorrhoeae, strain CDC50 (GCREF2012 048)) | MIC (Neisseria gonorrhoeae, strain CDC51 (GCREF2012 049)) | MIC (Neisseria gonorrhoeae, strain CDC52 (GCREF2012 050)) | MIC (Neisseria gonorrhoeae, strain CDC53 (GCREF2012 051)) | MIC (Neisseria gonorrhoeae, strain CDC54 (GCREF2012 052)) | MIC (Neisseria gonorrhoeae, strain CDC55 (GCREF2013 001)) | MIC (Neisseria gonorrhoeae, strain CDC56 (GCREF2013 002)) | MIC (Neisseria gonorrhoeae, strain CDC58 (GCREF2013 004)) | MIC (Neisseria gonorrhoeae, strain CDC60 (GCREF2013 005)) | MIC (Neisseria gonorrhoeae, strain CDC61 (GCREF2013 006)) | MIC (Neisseria gonorrhoeae, strain CDC64 (GCREF2013 009)) | MIC (Neisseria gonorrhoeae, strain CDC67 (GCREF2013 014)) | MIC (Neisseria gonorrhoeae, strain CDC68 (GCREF2013 016)) | MIC (Neisseria gonorrhoeae, strain CDC69 (GCREF2013 017)) | MIC (Neisseria gonorrhoeae, strain CDC70 (GCREF2013 018)) | MIC (Neisseria gonorrhoeae, strain CDC71 (GCREF2013 019)) | MIC (Neisseria gonorrhoeae, strain CDC72 (GCREF2013 020)) | MIC (Neisseria gonorrhoeae, strain CDC73 (GCREF2013 021)) | MIC (Neisseria gonorrhoeae, strain CDC74 (GCREF2013 022)) | MIC (Neisseria gonorrhoeae, strain CDC75 (GCREF2013 023)) | MIC (Neisseria gonorrhoeae, strain CDC76 (GCREF2013 024)) | MIC (Neisseria gonorrhoeae, strain CDC77 (GCREF2013 025)) | MIC (Neisseria gonorrhoeae, strain CDC78 (GCREF2013 026)) | MIC (Neisseria gonorrhoeae, strain CDC79 (GCREF2013 027)) | MIC (Neisseria gonorrhoeae, strain CDC80 (GCREF2013 028)) | MIC (Neisseria gonorrhoeae, strain CDC81 (GCREF2013 029)) | MIC (Neisseria gonorrhoeae, strain CDC87 (GCREF2013 036)) | MIC (Neisseria gonorrhoeae, strain CDC89 (GCREF2013 038)) | MIC (Neisseria gonorrhoeae, strain CDC90 (GCREF2013 039)) | MIC (Neisseria gonorrhoeae, strain CDC91 (GCREF2013 040)) | MIC (Neisseria gonorrhoeae, strain CDC92 (GCREF2013 041)) | MIC (Neisseria gonorrhoeae, strain CDC93 (GCREF2013 042)) | MIC (Neisseria gonorrhoeae, strain CDC95 (GCREF2013 045)) | MIC (Neisseria gonorrhoeae, strain CDC97 (GCREF2013 047)) | MIC (Neisseria gonorrhoeae, strain CDC100 (GCREF2013 015))
2 µg/mL: MIC (Neisseria gonorrhoeae, strain CDC1 (GCREF2012 016)) | MIC (Neisseria gonorrhoeae, strain CDC31 (GCREF2012 028)) | MIC (Neisseria gonorrhoeae, strain CDC35 (GCREF2012 032)) | MIC (Neisseria gonorrhoeae, strain CDC42 (GCREF2012 039)) | MIC (Neisseria gonorrhoeae, strain CDC43 (GCREF2012 040)) | MIC (Neisseria gonorrhoeae, strain CDC45 (GCREF2012 042))
